# Measured values reported in patent publication US6525066B2, “4-oxoquinolizine antimicrobial having 2-pyridone skeleton as partial structure” (SATO Pharmaceutical Co., Ltd., priority 1999, dated 2003).
# What was measured:
# Format in all cases: cell-based
# [1] = system: Escherichia coli IFO 12734; test: In vitro antibacterial activity, agar plate dilution method (MIC); conditions: for MIC: IFO12734, read-out: Antibacterial spectrum MIC
# Experimental: (§1) The in vitro antibacterial activity of the present compound (Example 2, 4, 6, 8, 10, 12, 14, 16 and 18) was tested by the standard method of Japan Chemical Therapy Institute using agar plate dilution method which is described in CHEMOTHERAPY Vol.29, […], 1981. For an anaerobic bacteria, it was tested by the method described in CHEMOTHERAPY Vol. 27, 559-590, 1979. The minimum concentration at which the growth of a bacteria could be inhibited by the present compound was decided as MIC (μg/ml).
# [2] = system: Streptococcus Pneumoniae IID553; test: as above; conditions: for MIC: read-out: Antibacterial spectrum MIC
# Experimental: as §1
# [3] = system: Pseudomonas aeruginosa CSJ 1853; test: as above; conditions: for MIC: CSJ1853, read-out: Antibacterial spectrum MIC
# Experimental: as §1
# [4] = system: Streptococcus aureus JCM2874; test: as above; conditions: for MIC: read-out: Antibacterial spectrum MIC
# Experimental: as §1
# [5] = system: Streptococcus aureus Clin-211; test: as above; conditions: for MIC: CLIN211, read-out: Antibacterial spectrum MIC
# Experimental: as §1
# [6] = system: Bacteroides fragilis GAI0675; test: In vitro antibacterial activity against anaerobic bacteria (MIC); conditions: Bacteroides fragilis GAI0675 (Table 2: Bacteroides GMI0675), anaerobic bacteria method; for MIC: read-out: Antibacterial spectrum MIC
# Experimental: as §1
Structure (SMILES),MIC [1],MIC [2],MIC [3],MIC [4],MIC [5],MIC [6],Antibacterial spectrum MIC [1],Antibacterial spectrum MIC [2],Antibacterial spectrum MIC [3],Antibacterial spectrum MIC [4],Antibacterial spectrum MIC [5],Antibacterial spectrum MIC [6]
"Cc1c(-c2ccc3c(c2)CNC3C)ccn2c(=O)c(C(=O)O)cc(C3CC3)c12 (stereo not drawn) [Example 2, 1-cyclopropyl-9-methyl-8-(1-methylisoindoline-5-yl)-4-oxo-4H-quinolizine-3-carboxylic acid]",0.031 µg/mL,0.063 µg/mL,0.25 µg/mL,0.008 µg/mL,0.25 µg/mL,0.031 µg/mL,–,–,–,–,–,–
"COc1c(-c2ccc3c(c2)CNC3C)ccn2c(=O)c(C(=O)O)cc(C3CC3)c12 (stereo not drawn) [Example 4, 1-cyclopropyl-9-methoxy-8-(1-methylisoindoline-5-yl)-4-oxo-4H-quinolizine-3-carboxylic acid]",0.125 µg/mL,0.25 µg/mL,1 µg/mL,0.063 µg/mL,1 µg/mL,0.25 µg/mL,–,–,–,–,–,–
"Cc1c(-c2ccc3c(c2)CNC3)ccn2c(=O)c(C(=O)O)cc(C3CC3)c12 [Example 6, 1-cyclopropyl-9-methyl-8-(isoindoline-5-yl)-4-oxo-4H-quinolizine-3-carboxylic acid]",0.016 µg/mL,0.031 µg/mL,0.25 µg/mL,0.008 µg/mL,0.125 µg/mL,0.031 µg/mL,–,–,–,–,–,–
"COc1c(-c2ccc3c(c2)CNC3)ccn2c(=O)c(C(=O)O)cc(C3CC3)c12 [Example 8, 1-cyclopropyl-9-methoxy-8-(isoindoline-5-yl)-4-oxo-4H-quinolizine-3-carboxylic acid]",0.063 µg/mL,0.25 µg/mL,1 µg/mL,0.063 µg/mL,0.5 µg/mL,0.25 µg/mL,–,–,–,–,–,–
"CC1NCc2cc(-c3ccn4c(=O)c(C(=O)O)cc(C5CC5)c4c3OC(F)F)ccc21 (stereo not drawn) [Example 10, 1-cyclopropyl-9-difluoromethoxy-8-((+)-1-methylisoindoline-5-yl)-4-oxo-4H-quinolizine-3-carboxylic acid]",0.125 µg/mL,0.25 µg/mL,4 µg/mL,0.063 µg/mL,1 µg/mL,0.5 µg/mL,–,–,–,–,–,–
"O=C(O)c1cc(C2CC2)c2c(OC(F)F)c(-c3ccc4c(c3)CNC4)ccn2c1=O [Example 12, 1-cyclopropyl-9-difloromethoxy-8-(isoindoline-5-yl)-4-oxo-4H-quinolizine-3-carboxylic acid]",–,–,–,–,–,–,0.125 µg/mL,0.25 µg/mL,4 µg/mL,0.031 µg/mL,1 µg/mL,0.25 µg/mL
"Cc1c(-c2cc(F)c3c(c2)CNC3)ccn2c(=O)c(C(=O)O)cc(C3CC3)c12 [Example 14, 1-cyclopropyl-8-(4-fluoroisoindoline-6-yl)-9-methyl-4-oxo-4H-quinolizine-3-carboxylic acid]",0.031 µg/mL,0.031 µg/mL,0.5 µg/mL,0.008 µg/mL,0.125 µg/mL,0.016 µg/mL,–,–,–,–,–,–
"COc1cc(-c2ccn3c(=O)c(C(=O)O)cc(C4CC4)c3c2OC)cc2c1CNC2 [Example 16, 1-cyclopropyl-9-methoxy-8-(4-methoxyisoindoline-6-yl)-4-oxo-4H-quinolizine-3-carboxylic acid]",0.5 µg/mL,0.5 µg/mL,8 µg/mL,0.125 µg/mL,2 µg/mL,0.25 µg/mL,–,–,–,–,–,–
"COc1cc(-c2ccn3c(=O)c(C(=O)O)cc(C4CC4)c3c2C)cc2c1CNC2 [Example 18, 1-cyclopropyl-9-methyl-8-(4-methoxy-isoindoline-6-yl)-4-oxo-4H-quinolizine-3-carboxylic acid]",0.125 µg/mL,0.125 µg/mL,2 µg/mL,0.031 µg/mL,0.5 µg/mL,0.063 µg/mL,–,–,–,–,–,–
"C[C@H]1COc2c(N3CCN(C)CC3)c(F)cc3c(=O)c(C(=O)O)cn1c23 [LVFX, levofloxacin, reference compound]",0.063 µg/mL,1 µg/mL,0.5 µg/mL,0.25 µg/mL,4 µg/mL,0.5 µg/mL,–,–,–,–,–,–
